Entries after “also recorded” stand apart in the source; their conditions may differ. Read-outs that look alike come from different tables or passages of the source.
B1: IL-4: cytokine used for eosinophil activation (protein, UniProt P05112 25-153, looked up)
Interleukin-4: HKCDITLQEIIKTLNSLTEQKTLCTELTVTDIFAASKNTTEKETFCRAATVLRQFYSHHEKDTRCLGATAQQFHRHKQLIRFLKRLDRNLWGLAGLNSCPVKEANQSTLENFLERLKTIMREKYSKCSS

Key:
[1] = target: T1, TINUR (Nurr1) (Homo sapiens, UniProt P43354); experiment: Mammalian two hybrid luciferase reporter system for TINUR ligand search (GAL4-TINUR LBD or full length, NIH3T3 cells, with or without RXRα); type: cell-based; settings: for Nurr1 LBD-ligand activity RXR(+): TINUR LBD fused to GAL4, RXRα added, NIH3T3 luciferase, ◯ with concentration, X
T1 construct: expressed in transfected cells; host or cells: NIH3T3
Description: (§1) A TR3 or TINUR ligand-binding site is inserted into X, and the full-length retinoic acid X receptor (RXR) α gene is inserted into Y. These constructs are transfected into NIH3T3 cells, and the activity of induced luciferase is measured.
A plasmid comprising the TINUR ligand binding domain sequence inserted into pBIND, and a luciferase reporter plasmid comprising a GAL4 binding site, were co-transfected into NIH3T3 cells. Luciferase activity was measured automatically. At the same time, activity measurement was also carried out by adding retinoic acid X receptor (RXR) α-gene, a transcription factor that forms a heterodimer with TINUR. Low molecular weight substances can also be added to this system to screen using transcriptional enhancement activity.
Like TR3 expression, TINUR expression is enhanced in activated eosinophils. Ligands existing in vivo may exist in sites where nuclear receptors are highly expressed. […] Ligands of the nuclear receptor subfamily are assumed to have structural redundancy. Therefore, derivatives similar to TR3 activator compounds were added, and enhancement of transcriptional activity was investigated.
(§2) Thus, it was implied that prostaglandin A2 functions by acting on the LBD region of the nuclear receptor.
Target sequence in this assay (P43354 360-598): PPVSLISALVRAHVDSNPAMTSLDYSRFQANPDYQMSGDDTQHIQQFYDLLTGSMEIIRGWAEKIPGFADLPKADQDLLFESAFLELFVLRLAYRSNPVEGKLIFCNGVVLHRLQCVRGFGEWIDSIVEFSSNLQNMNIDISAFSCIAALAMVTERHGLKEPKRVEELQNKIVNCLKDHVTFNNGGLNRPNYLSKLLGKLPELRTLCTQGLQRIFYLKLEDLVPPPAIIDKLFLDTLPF

[2] = target: T2, TR3 (Nur77) (Homo sapiens, UniProt P22736); experiment: Mammalian two hybrid luciferase reporter system for TR3 ligand search (GAL4-TR3 LBD or full length, NIH3T3 cells, with or without RXRα); type: cell-based; settings: for Full length Nur77-ligand activity RXR(+): full length TR3 fused to GAL4, RXRα added; for Full length Nur77-ligand activity RXR(+) / Full length Nur77-ligand activity RXR(−): NIH3T3 luciferase, ◯ with concentration, X; for Full length Nur77-ligand activity RXR(−): full length TR3 fused to GAL4, without RXRα
T2 construct: expressed in transfected cells; host or cells: NIH3T3

[3] = target: T2, TR3 (Nur77); experiment: as above; type: cell-based; settings: for Nur77 LBD-ligand activity RXR(+): TR3 LBD fused to GAL4, RXRα added, NIH3T3 luciferase, ◯ with concentration, X
Description: as §1
This was done to facilitate expression of a protein in which the DNA binding domains of TR3 and GAL4 were fused in frame. A plasmid comprising the TR3 ligand binding domain sequence inserted into pBIND, and a luciferase reporter plasmid comprising a GAL4 binding site, were co-transfected into NIH3T3 cells. Luciferase activity was measured automatically. At this time, activity was also measured by adding a retinoic acid X receptor (RXR) α-gene, which is a transcription factor that forms a heterodimer with TR3. By further adding low molecular weight substances to this system, transcriptional enhancement activity can also be used for screening.
TR3 expression is enhanced in activated eosinophils, such as in the peripheral blood of atopic dermatitis patients. Ligands existing in vivo may exist in sites where nuclear receptors are highly expressed. Therefore, small molecule lipid-soluble mediators considered to be produced under such conditions were added to the assay system, and evaluated based on their ability to enhance luciferase activity. […] In this manner, the method established by the present inventors paved the way for the high throughput discovery of native and synthetic TR3 ligands.
as §2

[4] = target: T1, TINUR (Nurr1); experiment: Mammalian two hybrid luciferase reporter system for TINUR ligand search (GAL4-TINUR LBD or full length, NIH3T3 cells, with or without RXRα); type: cell-based; settings: NIH3T3 luciferase, ◯ with concentration, X; for Full length Nurr1-ligand activity RXR(+): full length TINUR fused to GAL4, RXRα added; for Full length Nurr1-ligand activity RXR(−): full length TINUR fused to GAL4, without RXRα
Target sequence in this assay (P43354 whole entry, the tested form may be a part): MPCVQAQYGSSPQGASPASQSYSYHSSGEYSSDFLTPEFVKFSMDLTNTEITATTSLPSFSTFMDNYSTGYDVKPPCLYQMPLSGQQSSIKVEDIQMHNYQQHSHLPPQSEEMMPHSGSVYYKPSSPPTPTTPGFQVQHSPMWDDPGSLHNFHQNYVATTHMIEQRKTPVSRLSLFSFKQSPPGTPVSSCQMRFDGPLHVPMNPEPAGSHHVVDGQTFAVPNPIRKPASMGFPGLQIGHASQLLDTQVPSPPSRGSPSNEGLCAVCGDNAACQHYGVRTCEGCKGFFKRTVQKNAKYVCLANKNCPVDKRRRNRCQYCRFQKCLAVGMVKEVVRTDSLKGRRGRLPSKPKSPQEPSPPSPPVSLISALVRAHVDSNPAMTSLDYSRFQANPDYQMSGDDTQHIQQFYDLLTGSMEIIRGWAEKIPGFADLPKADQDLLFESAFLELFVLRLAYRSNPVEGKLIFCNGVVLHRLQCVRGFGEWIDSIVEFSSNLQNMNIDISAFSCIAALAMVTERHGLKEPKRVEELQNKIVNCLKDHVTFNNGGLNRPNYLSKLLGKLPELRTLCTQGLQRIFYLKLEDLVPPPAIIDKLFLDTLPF

[5] = target: T3, TINUR LBD (Homo sapiens, UniProt P43354); experiment: Binding to TINUR GST-LBD by BIAcor S51; settings: BIAcor S51, comparison with GST as a base
T3 construct: TR3 GST-LBD and TINUR GST-LBD were respectively expressed in E. coli, and then purified; made in house; host or cells: E. coli
T3 sequence (P43354 360-595 limits assumed): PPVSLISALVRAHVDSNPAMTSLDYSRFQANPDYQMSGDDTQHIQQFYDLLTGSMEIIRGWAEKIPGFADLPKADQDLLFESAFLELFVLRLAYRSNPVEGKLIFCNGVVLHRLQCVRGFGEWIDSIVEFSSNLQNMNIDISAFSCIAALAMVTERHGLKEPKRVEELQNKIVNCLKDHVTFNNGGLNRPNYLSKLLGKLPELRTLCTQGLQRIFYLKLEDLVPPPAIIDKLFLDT

[6] = target: T4, TR3 LBD (Homo sapiens, UniProt P22736); experiment: Binding to TR3 GST-LBD by BIAcor S51; settings: BIAcor S51, comparison with GST as a base
T4 construct: TR3 GST-LBD and TINUR GST-LBD were respectively expressed in E. coli, and then purified; made in house; host or cells: E. coli
T4 sequence (P22736 360-595 limits assumed): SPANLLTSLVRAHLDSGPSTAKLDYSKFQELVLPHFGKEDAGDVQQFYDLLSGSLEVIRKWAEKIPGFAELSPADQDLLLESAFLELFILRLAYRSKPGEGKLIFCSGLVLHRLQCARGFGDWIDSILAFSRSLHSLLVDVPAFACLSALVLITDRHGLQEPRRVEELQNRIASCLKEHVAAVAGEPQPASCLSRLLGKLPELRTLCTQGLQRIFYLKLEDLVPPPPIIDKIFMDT
Description: In the present invention, a biosensor utilizing the phenomenon of surface plasmon resonance may also be used to detect or measure the bound compound. […] Therefore, biosensors such as BIACORE can be used to evaluate binding between the TR3 or TINUR protein and a test compound.

[7] = system: TINUR (Nurr1); experiment: Mammalian two hybrid luciferase reporter system for TINUR ligand search (GAL4-TINUR LBD or full length, NIH3T3 cells, with or without RXRα); type: cell-based, human; settings: LBD deletion mutant (ΔLBD)
[8] = system: TR3 expression in peripheral blood eosinophils; experiment: TR3 expression induction in cultured peripheral blood eosinophils; type: cell-based, human; settings: cultured peripheral blood eosinophils from healthy subjects, one to three-hour treatment

Molecule | activity of activating TINUR transcription (luciferase reporter), in words [1] | Nurr1 LBD-ligand activity RXR(+) [1] | Full length Nur77-ligand activity RXR(+) [2] | activity of enhancing the transcription-activating ability of TR3 (luciferase reporter), in words [3] | Nur77 LBD-ligand activity RXR(+) [3] | Full length Nurr1-ligand activity RXR(+) [4] | Full length Nur77-ligand activity RXR(−) [2] | activity of activating TINUR transcription (luciferase reporter), in words ([1]; listed as 15-deoxy-delta 12,14-prostaglandin J2) | Full length Nurr1-ligand activity RXR(−) [4] | binding to the LBD of TINUR [5] | binding to the LBD of TR3 [6] | transcriptional activity with TR3 gene completely lacking an LBD region ([2]; LBD deletion mutant (ΔLBD)) | transcriptional activity with TINUR gene completely lacking an LBD region [7] | TR3 induction [8]
CCCCC[C@H](O)/C=C/[C@H]1C=CC(=O)[C@H]1CCCCCCC(=O)O [8-isoProstaglandin A1] | ligand activators; also recorded: found to comprise the activity of activating TINUR transcription | ◯10 μM | ◯ 3 μM | ligand activators for TR3 | ◯10 μM | ◯10 μM |  |  |  |  |  |  |  | 
CCCCC[C@@](C)(O)/C=C/[C@H]1C=CC(=O)[C@@H]1C/C=C\CCCC(=O)O [15(R)-15-methylProstaglandin A2] | ligand activators; also recorded: found to comprise the activity of activating TINUR transcription | ◯10 μM | ◯10 μM | ligand activators for TR3; also recorded: the activity of enhancing the transcription-activating ability of TR3 was found | ◯10 μM | ◯10 μM | ◯10 μM |  |  |  |  |  |  | 
CCCCC/C=C/C=C1/C=CC(=O)[C@@H]1CCCCCCC(=O)O [15-deoxy-Δ^12.14_Prostaglandin A1] |  |  | ◯30 μM | ligand activators for TR3 | ◯30 μM |  |  |  |  |  |  |  |  | 
CCCCC/C=C/C=C1/C(=O)C=C[C@@H]1C/C=C\CCCC(=O)O [15-deoxy-Δ^12.14_Prostaglandin J2] |  | ◯10 μM | ◯10 μM | ligand activators for TR3 |  |  | ◯10 μM | ligand activators; also recorded: found to comprise the activity of activating TINUR transcription |  |  |  |  |  | 
CCCCC[C@@H](O)/C=C/[C@H]1C=CC(=O)[C@@H]1CCCCCCC(=O)O [15-epiProstaglandin A1] | ligand activators; also recorded: found to comprise the activity of activating TINUR transcription | ◯10 μM | ◯10 μM | ligand activators for TR3; also recorded: the activity of enhancing the transcription-activating ability of TR3 was found | ◯10 μM |  | ◯10 μM |  |  |  |  |  |  | 
O=C(O)CCC/C=C\C[C@H]1C(=O)C=C[C@@H]1/C=C/[C@@H](O)COc1ccccc1 [16-phenoxytetranorProstaglandin A2] | ligand activators; also recorded: found to comprise the activity of activating TINUR transcription | ◯10 μM |  | ligand activators for TR3 |  | ◯30 μM | ◯30 μM |  | ◯30 μM |  |  |  |  | 
O=C(O)CCC/C=C\C[C@H]1C(=O)C=C[C@@H]1/C=C/[C@@H](O)CCc1ccccc1 [17-phenyl trinorProstaglandin A2] | ligand activators; also recorded: found to comprise the activity of activating TINUR transcription | ◯10 μM | ◯10 μM | ligand activators for TR3 | ◯10 μM | ◯10 μM |  |  |  |  |  |  |  | 
CCCCC[C@H](O)/C=C/[C@H]1C=CC(=O)[C@@H]1CCCCCCC(=O)O [Prostaglandin A1] | ligand activators; also recorded: found to comprise the activity of activating TINUR transcription | ◯10 μM | ◯10 μM | ligand activators for TR3; also recorded: the activity of enhancing the transcription-activating ability of TR3 was found | ◯10 μM | ◯10 μM | ◯10 μM |  | ◯10 μM | detected | detected |  |  | 
CCCCC[C@H](O)/C=C/[C@H]1C=CC(=O)[C@@H]1C/C=C\CCCC(=O)O [Prostaglandin A2] | ligand activators; also recorded: found to comprise the activity of activating TINUR transcription | ◯10 μM | ◯10 μM | ligand activators for TR3; also recorded: the activity of enhancing the transcription-activating ability of TR3 was found | ◯10 μM | ◯10 μM | ◯10 μM |  | ◯10 μM | detected | detected | suppressed | suppressed | 
CCCCC[C@H](O)C/C=C1/C(=O)C=C[C@@H]1C/C=C\CCCC(=O)O [Δ12-Prostaglandin J2] |  |  |  | the activity of enhancing the transcription-activating ability of TR3 was found |  |  |  |  |  |  |  |  |  | 
IL-5: cytokine used for eosinophil activation |  |  |  |  |  |  |  |  |  |  |  |  |  | did not lead to TR3 induction
B1 |  |  |  |  |  |  |  |  |  |  |  |  |  | did not lead to TR3 induction

Source: patent publication US7172867B2, “Methods of testing for allergic diseases, and therapeutic agents for treating same” (priority 2002, dated 2007)
